Where a name gives a salt, the structure may show the parent alone. Starred links: 1 amine or outer side, 2 acyl side, 3 side chain; linkers in the order of their positions; H or OH if unused. Positions of bridges follow the written chain, without caps; N, C: chain ends. Non-standard residues stand in square brackets, D forms with d. Residues, ends and D or L forms follow the SMILES beside them. *: point of attachment. pTerphenylCO(4''-OnC5H11) = CCCCCOc1ccc(-c2ccc(-c3ccc(C(=O)*)cc3)cc2)cc1; Orn(4R-OH,5R-OH) = O=C([C@H](C[C@@H](O)[C@@H](O)N[*:3])N[*:1])[*:2]; hTyr(3S-OH,4S-OH) = N[C@H](C(=O)O)[C@H](O)[C@@H](O)c1ccc(O)cc1; Pro(3S-OH,4S-Me) = C[C@H]1CN[C@H](C(=O)O)[C@H]1O; Hyp = O=C(O)[C@@H]1C[C@@H](O)CN1
Key:
Format in all cases: biochemical
Conditions in all cases: FDA-approved drug screen
[1] = biological target: T1, recombinant PRL-3 (Homo sapiens, UniProt O75365); test: In vitro phosphatase assay (DiFMUP hydrolysis), PRL-3; further: test concentration or dose not given here
T1 construct: 6xHis (N, cleaved yes); made in house; host or cells: E. coli One Shot BL21 Star
T1 sequence (O75365 whole entry): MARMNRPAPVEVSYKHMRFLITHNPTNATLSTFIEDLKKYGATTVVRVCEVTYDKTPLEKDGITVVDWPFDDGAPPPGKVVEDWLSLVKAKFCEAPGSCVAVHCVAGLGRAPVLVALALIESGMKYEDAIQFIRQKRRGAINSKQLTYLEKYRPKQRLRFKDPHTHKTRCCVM

[2] = biological target: T2, recombinant PRL-1 (Homo sapiens, UniProt Q93096); test: In vitro phosphatase assay (DiFMUP hydrolysis), PRL-1; further: test concentration or dose not given here
T2 construct: 6xHis (N, cleaved yes); made in house; host or cells: E. coli One Shot BL21 Star
T2 sequence (Q93096 1-173): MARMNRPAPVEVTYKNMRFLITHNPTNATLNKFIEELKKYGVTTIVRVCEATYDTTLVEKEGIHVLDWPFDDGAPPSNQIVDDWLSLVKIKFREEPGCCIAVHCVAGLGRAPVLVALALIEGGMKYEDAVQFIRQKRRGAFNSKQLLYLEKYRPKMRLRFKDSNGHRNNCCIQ

[3] = biological target: T3, recombinant PRL-2 (Homo sapiens, UniProt Q12974); test: In vitro phosphatase assay (DiFMUP hydrolysis), PRL-2;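 further: PRL-2 activity read as DiFMUP hydrolysis after 20 min at room temperature with drug, enzyme first pre-reduced at 4 °C for 20 min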
T3 construct: 6xHis (N, cleaved yes); made in house; host or cells: E. coli One Shot BL21 Star
T3 sequence (Q12974 1-167): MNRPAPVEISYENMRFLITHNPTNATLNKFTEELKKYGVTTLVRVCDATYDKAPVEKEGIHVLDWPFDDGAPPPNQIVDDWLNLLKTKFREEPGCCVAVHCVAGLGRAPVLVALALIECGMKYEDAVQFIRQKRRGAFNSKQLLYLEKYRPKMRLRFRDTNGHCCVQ

% Phosphatase Activity (compared to DMSO) PRL-3 ([1]; compared to DMSO) | % Phosphatase Activity (compared to DMSO) PRL-1 ([2]; compared to DMSO) | % Phosphatase Activity (compared to DMSO) PRL-2 ([3]; compared to DMSO) | Molecule | % Phosphatase Activity (compared to DMSO) PRL-3 ([1]; activity compared to DMSO) | % Phosphatase Activity (compared to DMSO) PRL-1 ([2]; activity compared to DMSO) | % Phosphatase Activity (compared to DMSO) PRL-2 ([3]; activity compared to DMSO)
79% | 102% | 91% | C[C@]12CCC(=O)C=C1CC[C@@H]1[C@@H]2[C@@H](O)C[C@@]2(C)[C@H]1CC[C@]2(O)C(=O)CO [Hydrocortisone] | – | – | –
96% | 103% | 84% | N=C(N)NC(=O)Cc1c(Cl)cccc1Cl [Guanfacine Hydrochloride] | – | – | –
68% | 82% | 72% | NC(=O)N/N=C/c1ccc([N+](=O)[O-])o1 [Nitrofural] | – | – | –
92% | 103% | 110% | COc1ccc(C(Cl)=C(c2ccc(OC)cc2)c2ccc(OC)cc2)cc1 [Chlorotrianisene] | – | – | –
73% | 98% | 99% | CC[C@H]1OC(=O)[C@H](C)[C@@H](O[C@H]2C[C@@](C)(OC)[C@@H](O)[C@H](C)O2)[C@H](C)[C@@H](O[C@@H]2O[C@H](C)C[C@H](N(C)C)[C@H]2O)[C@](C)(O)C[C@@H](C)CN(C)[C@H](C)[C@@H](O)[C@]1(C)O [Azithromycin Dihydrate] | – | – | –
59% | 74% | 68% | Carbazochrome sodium sulfonate (AC-17) | – | – | –
77% | 83% | 75% | O=C(OCc1ccccc1)c1ccccc1 [Benzyl benzoate] | – | – | –
– | – | – | CN[C@H](CC(C)C)C(=O)N[C@H]1C(=O)N[C@@H](CC(N)=O)C(=O)N[C@H]2C(=O)N[C@H]3C(=O)N[C@H](C(=O)N[C@H](C(=O)O)c4cc(O)cc(O)c4-c4cc3ccc4O)[C@H](O)c3ccc(c(Cl)c3)Oc3cc2cc(c3O[C@@H]2O[C@H](CO)[C@@H](O)[C@H](O)[C@H]2O[C@H]2C[C@](C)(N)[C@H](O)[C@H](C)O2)Oc2ccc(cc2Cl)[C@H]1O [Vancomycin HCl] | 99% | 99% | 109%
81% | 89% | 88% | Cc1nc(Nc2ncc(C(=O)Nc3c(C)cccc3Cl)s2)cc(N2CCN(CCO)CC2)n1 [Dasatinib] | – | – | –
84% | 99% | 106% | NC(=O)C1CCCc2c1[nH]c1ccc(Cl)cc21 (stereo not drawn) [EX 527 (Selisistat)] | – | – | –
70% | 98% | 95% | C[C@](N)(Cc1ccc(O)c(O)c1)C(=O)O [Methyldopa] | – | – | –
71% | 94% | 74% | COC(=O)C1=C(C)NC(C)=C(C(=O)OC(C)C)C1c1cccc2nonc12 (stereo not drawn) [Isradipine] | – | – | –
95% | 95% | 82% | CCS(=O)(=O)N1CCN(c2ccc(Nc3ncc(C(N)=O)c(NC4CC4)n3)cc2)CC1 [Cerdulatinib (PRT062070, PRT2070)] | – | – | –
95% | 96% | 135% | CC#C[C@]1(O)CC[C@H]2[C@@H]3CCC4=CC(=O)CCC4=C3[C@@H](c3ccc(N(C)C)cc3)C[C@@]21C [Mifepristone] | – | – | –
79% | 64% | 60% | CO[C@H]1/C=C/O[C@@]2(C)Oc3c(C)c(O)c4c(O)c(c5c(nc6cc(C)ccn65)c4c3C2=O)NC(=O)/C(C)=C\C=C\[C@H](C)[C@H](O)[C@@H](C)[C@@H](O)[C@@H](C)[C@H](OC(C)=O)[C@@H]1C [Rifaximin] | – | – | –
92% | 100% | 112% | Nc1nc(=O)c2nc(CNc3ccc(C(=O)N[C@@H](CCC(=O)O)C(=O)O)cc3)cnc2[nH]1 [Folic acid] | – | – | –
87% | 112% | 109% | C1N2CN3CN1CN(C2)C3 [Methenamine] | – | – | –
82% | 99% | 118% | Cc1cc(C(C)(C)C)c(O)c(C)c1CC1=NCCN1 [Oxymetazoline hydrochloride] | – | – | –
81% | 99% | 95% | CC(C)(Oc1ccc(Cl)cc1)C(=O)O [Clofibric Acid] | – | – | –
90% | 93% | 87% | CC(=O)O[C@@]12CO[C@@H]1C[C@H](O)[C@@]1(C)C(=O)[C@H](O)C3=C(C)[C@@H](OC(=O)[C@H](O)[C@@H](NC(=O)OC(C)(C)C)c4ccccc4)C[C@@](O)([C@@H](OC(=O)c4ccccc4)[C@H]21)C3(C)C [Docetaxel Trihydrate] | – | – | –

Molecule | % Phosphatase Activity (compared to DMSO) PRL-3 ([1]; compared to DMSO) | % Phosphatase Activity (compared to DMSO) PRL-1 ([2]; compared to DMSO) | % Phosphatase Activity (compared to DMSO) PRL-2 ([3]; compared to DMSO) | % Phosphatase Activity (compared to DMSO) PRL-3 ([1]; activity compared to DMSO) | % Phosphatase Activity (compared to DMSO) PRL-1 ([2]; activity compared to DMSO) | % Phosphatase Activity (compared to DMSO) PRL-2 ([3]; activity compared to DMSO)
CCOc1nc2cccc(C(=O)OCc3oc(=O)oc3C)c2n1Cc1ccc(-c2ccccc2-c2noc(=O)[nH]2)cc1 [Azilsartan Medoxomil] | 90% | 91% | 96% | – | – | –
NS(=O)(=O)c1cc2c(cc1Cl)N=CNS2(=O)=O [Chlorothiazide] | 76% | 105% | 80% | – | – | –
CCC(=O)NS(=O)(=O)c1ccc(-c2c(-c3ccccc3)noc2C)cc1 [Parecoxib] | 74% | 98% | 84% | – | – | –
CNS(=O)(=O)C[C@H]1CC[C@H](N(C)c2ncnc3[nH]ccc23)CC1 [Oclacitinib] | 80% | 98% | 81% | – | – | –
CC1(C)S[C@@H]2[C@H](NC(=O)[C@H](N)c3ccccc3)C(=O)N2[C@H]1C(=O)O [Ampicillin Trihydrate] | 72% | 92% | 106% | – | – | –
CN1CCC[C@@H]1Cc1c[nH]c2ccc(CCS(=O)(=O)c3ccccc3)cc12 [Eletriptan HBr] | 92% | 109% | 121% | – | – | –
CC(C(=O)[O-])c1cccc(Oc2ccccc2)c1.CC(C(=O)[O-])c1cccc(Oc2ccccc2)c1.[Ca+2] (stereo not drawn) [Fenoprofen Calcium] | 95% | 82% | 80% | – | – | –
CC(=O)NC(CC(C)C)C(=O)O (stereo not drawn) [Acetylleucine] | 89% | 110% | 99% | – | – | –
Cc1ncc(CO)c(CO)c1O [Pyridoxine HCl] | 91% | 100% | 102% | – | – | –
C[C@@H]1[C@H](O)[C@@H](C)/C=C/C=C/CC/C=C/C=C/C=C/C=C/[C@H](O[C@H]2O[C@@H](C)[C@H](O)[C@@H](N)[C@H]2O)C[C@@H]2O[C@](O)(C[C@@H](O)[C@H](O)CC[C@@H](O)C[C@@H](O)C[C@@H](O)CC(=O)O[C@H]1C)C[C@H](O)[C@H]2C(=O)O [Nystatin (Fungicidin)] | 81% | 79% | 87% | – | – | –
CN1C(C(=O)Nc2ccccn2)=C(O)c2ccccc2S1(=O)=O [Piroxicam] | 70% | 88% | 76% | – | – | –
CC1COc2c(N3CCN(C)CC3)c(F)cc3c(=O)c(C(=O)O)cn1c23 (stereo not drawn) [Ofloxacin] | 134% | 301% | 271% | – | – | –
S-Ruxolitinib (INCB018424) | 104% | 113% | 127% | – | – | –
COc1cc2ncnc(Nc3ccc(F)c(Cl)c3)c2cc1OCCCN1CCOCC1 [Gefitinib (ZD1839)] | 77% | 93% | 102% | – | – | –
CCCCCOc1ccc(-c2ccc(-c3ccc(C(=O)N[C@H]4C[C@@H](O)[C@@H](O)NC(=O)[C@@H]5[C@@H](O)[C@@H](C)CN5C(=O)[C@H]([C@@H](C)O)NC(=O)[C@H]([C@H](O)[C@@H](O)c5ccc(O)cc5)NC(=O)[C@@H]5C[C@@H](O)CN5C(=O)[C@H]([C@@H](C)O)NC4=O)cc3)cc2)cc1 [Anidulafungin (LY303366)] ({pTerphenylCO(4''-OnC5H11)}-[Orn(4R-OH,5R-OH)]T[Hyp][hTyr(3S-OH,4S-OH)]T[Pro(3S-OH,4S-Me)]; lactam 1-C) | 623% | 569% | 568% | – | – | –

— article PMC8119466, “A screen of FDA-approved drugs identifies inhibitors of protein tyrosine phosphatase 4A3 (PTP4A3 or PRL-3)” (Scientific Reports, 2021)
